In ChEMBL document CHEMBL2157897, “Meso-tetrakis(p-sulfonatophenyl)N-confused porphyrin tetrasodium salt: a potential sensitizer for photodynamic therapy” (J Med Chem, 2012):
Active and inactive are the calls of the source. No cut-off for these calls is given here.

What was measured:
[1] = tested on: HeLa; test: Photocytotoxicity against human HeLa cells preincubated for 1 hr prior to illumination measured after 24 hrs post illumination by MTT assay; format: functional, cell-based
[2] = tested on: SiHa; test: Photocytotoxicity against human SiHa cells preincubated for 1 hr prior to illumination measured after 24 hrs post illumination by MTT assay; format: functional, cell-based
[3] = Photocytotoxicity against human SCC131 cells preincubated for 1 hr prior to illumination measured after 24 hrs post illumination by MTT assay; format: functional, cell-based
[4] = Photocytotoxicity against human SCC172 cells preincubated for 1 hr prior to illumination measured after 24 hrs post illumination by MTT assay; format: functional, cell-based
[5] = tested on: MIA PaCa-2; test: Photocytotoxicity against human MIAPaCa2 cells preincubated for 1 hr prior to illumination measured after 24 hrs post illumination by MTT assay; format: functional, cell-based
[6] = tested on: HCT-116; test: Photocytotoxicity against human HCT116 cells preincubated for 1 hr prior to illumination measured after 24 hrs post illumination by MTT assay; format: functional, cell-based
[7] = tested on: MCF7; test: Photocytotoxicity against human MCF7 cells preincubated for 1 hr prior to illumination measured after 24 hrs post illumination by MTT assay; format: functional, cell-based
[8] = tested on: MDA-MB-231; test: Photocytotoxicity against human MDA-MB-231 cells preincubated for 1 hr prior to illumination measured after 24 hrs post illumination by MTT assay; format: functional, cell-based
[9] = tested on: MDA-MB-231; test: Induction of ROS generation in human MDA-MB-231 cells using CM-H2DCFDA as probe after 24 hrs post photoirradiation by FACS flow cytometry; format: functional, cell-based
[10] = tested on: MDA-MB-231; test: Induction of ROS generation in human MDA-MB-231 cells using CM-H2DCFDA as probe at 6 uM after 24 hrs post photoirradiation by FACS flow cytometry (reference value: 13.7 +/- 2.3 %); format: functional
[11] = tested on: MDA-MB-231; test: Induction of ROS generation in human MDA-MB-231 cells using CM-H2DCFDA as probe at 12 uM after 24 hrs post photoirradiation by FACS flow cytometry (reference value: 13.7 +/- 2.3 %); format: functional
[12] = tested on: HeLa; test: Cytotoxicity against human HeLa cells assessed as cell viability at 10 to 50 uM after 24 hrs by MTT assay in absence of light; format: cell-based
[13] = tested on: SiHa; test: Cytotoxicity against human SiHa cells assessed as cell viability at 10 to 50 uM after 24 hrs by MTT assay in absence of light; format: cell-based
[14] = Cytotoxicity against human SCC131 cells assessed as cell viability at 10 to 50 uM after 24 hrs by MTT assay in absence of light; format: cell-based; conditions: scc131, 24 h
[15] = Cytotoxicity against human SCC172 cells assessed as cell viability at 10 to 50 uM after 24 hrs by MTT assay in absence of light; format: cell-based; conditions: scc172, 24 h
[16] = tested on: MIA PaCa-2; test: Cytotoxicity against human MIAPaCa2 cells assessed as cell viability at 10 to 50 uM after 24 hrs by MTT assay in absence of light; format: cell-based; conditions: mia paca-2, 24 h
[17] = tested on: HCT-116; test: Cytotoxicity against human HCT116 cells assessed as cell viability at 10 to 50 uM after 24 hrs by MTT assay in absence of light; format: cell-based; conditions: hct-116, 24 h
[18] = tested on: MCF7; test: Cytotoxicity against human MCF7 cells assessed as cell viability at 10 to 50 uM after 24 hrs by MTT assay in absence of light; format: cell-based; conditions: mcf7, 24 h
[19] = tested on: MDA-MB-231; test: Cytotoxicity against human MDA-MB-231 cells assessed as cell viability at 10 to 50 uM after 24 hrs by MTT assay in absence of light; format: cell-based; conditions: mda-mb-231, 24 h
[20] = tested on: MDA-MB-231; test: Ratio of IC50 for human HeLa cells to IC50 for human MDA-MB-231 cells; format: functional
[21] = tested on: MDA-MB-231; test: Induction of apoptosis in human MDA-MB-231 cells assessed as early apoptotic cells at 6 uM preincubated for 1 hr followed by photoirradiation by annexin V-FITC/propidium iodide staining based flow cytometry (reference value: 3.5 +/- 0.41 %); format: functional
[22] = tested on: MDA-MB-231; test: Induction of apoptosis in human MDA-MB-231 cells assessed as early apoptotic cells at 12 uM preincubated for 1 hr followed by photoirradiation by annexin V-FITC/propidium iodide staining based flow cytometry (reference value: 3.5 +/- 0.41 %); format: functional
[23] = tested on: MDA-MB-231; test: Induction of apoptosis in human MDA-MB-231 cells at 12 uM after 1 hr by annexin V-FITC/propidium iodide staining based flow cytometry in absence of light; format: cell-based; conditions: mda-mb-231, 1 h
[24] = tested on: MDA-MB-231; test: Induction of apoptosis in human MDA-MB-231 cells assessed as chromatin condensation at 6 uM preincubated for 1 hr followed by photoirradiation measured after 24 hrs by Hoechst staining based fluorescence microscopy (reference value: 10.4 +/- 1.5 %); format: functional
[25] = tested on: MDA-MB-231; test: Induction of apoptosis in human MDA-MB-231 cells assessed as chromatin condensation at 12 uM preincubated for 1 hr followed by photoirradiation measured after 24 hrs by Hoechst staining based fluorescence microscopy (reference value: 10.4 +/- 1.5 %); format: functional
[26] = tested on: MDA-MB-231; test: Induction of apoptosis in human MDA-MB-231 cells assessed as chromatin condensation preincubated for 1 hr followed by photoirradiation measured after 24 hrs by Hoechst staining based fluorescence microscopy; format: functional, cell-based
[27] = tested on: MDA-MB-231; test: Induction of apoptosis in human MDA-MB-231 cells assessed as decrease in mitochondrial membrane potential at 6 uM preincubated for 1 hr followed by photoirradiation measured after 24 hrs by JC1 staining based fluorescence microscopy (reference value: 12.1 +/- 4.9 %); format: functional; design: scale not given: the % may be the effect or the level left
[28] = tested on: MDA-MB-231; test: Induction of apoptosis in human MDA-MB-231 cells assessed as decrease in mitochondrial membrane potential at 12 uM preincubated for 1 hr followed by photoirradiation measured after 24 hrs by JC1 staining based fluorescence microscopy (reference value: 12.1 +/- 4.9 %); format: functional; design: scale not given: the % may be the effect or the level left
[29] = tested on: MDA-MB-231; test: Induction of apoptosis in human MDA-MB-231 cells assessed as PARP cleavage at 12 uM after 1 hr by immunoblotting in absence of light; format: cell-based; conditions: mda-mb-231, 1 h
[30] = tested on: MDA-MB-231; test: Induction of apoptosis in human MDA-MB-231 cells assessed as PARP cleavage at 6 and 12 uM preincubated for 1 hr followed by photoirradiation by immunoblotting; format: functional, cell-based

SMILES: O=S(=O)([O-])c1ccc(-c2c3cc(c(-c4ccc(S(=O)(=O)[O-])cc4)c4ccc([nH]4)c(-c4ccc(S(=O)(=O)[O-])cc4)c4nc(c(-c5ccc(S(=O)(=O)[O-])cc5)c5ccc2[nH]5)C=C4)N=C3)cc1.[Na+].[Na+].[Na+].[Na+]
- IC50 [1]: 25 µM
- IC50 [2]: 20 µM
- IC50 [3]: 13 µM
- IC50 [4]: 11 µM
- IC50 [5]: 8 µM
- IC50 [6]: 8 µM
- IC50 [7]: 12 µM
- IC50 [8]: 6 µM
- Activity [9]: Dose-dependent effect
- Activity [10]: 61.8%
- Activity [11]: 79.5%
- Activity [12]: Non-toxic
- Activity [13]: Non-toxic
- Activity [14]: Non-toxic
- Activity [15]: Non-toxic
- Activity [16]: Non-toxic
- Activity [17]: Non-toxic
- Activity [18]: Non-toxic
- Activity [19]: Non-toxic
- Ratio IC50 [20]: 5
- Activity [21]: 65.8%
- Activity [22]: 83.9%
- Activity [23]: Non-toxic
- Activity [24]: 72%
- Activity [25]: 91%
- Activity [26]: Dose-dependent effect
- Activity [27]: 69.7%
- Activity [28]: 88.5%
- Activity [29]: Non-toxic
- Activity [30]: Active
